Test results: ChEMBL document CHEMBL4706505, “F10, a new camptothecin derivative, was identified as a new orally-bioavailable, potent antitumor agent” (Eur J Med Chem, 2020)
In brackets after ≈: the same amount, converted by molar mass.

Experiments:
A549 = assay: Cytotoxicity against human A549 assessed as reduction in cell viability measured after 72 hrs by MTT assay; type: functional, cell-based; conditions: A549, 72 h
HCT-116 [1] = assay: Cytotoxicity against human HCT-116 assessed as reduction in cell viability measured after 72 hrs by MTT assay; type: functional, cell-based; conditions: HCT-116, 72 h
LoVo = assay: Cytotoxicity against human LoVo assessed as reduction in cell viability measured after 72 hrs by MTT assay; type: functional, cell-based
COLO 205 = assay: Cytotoxicity against human COLO 205 assessed as reduction in cell viability measured after 72 hrs by MTT assay; type: functional, cell-based; conditions: COLO 205, 72 h
HCT-116 [2] = assay: Induction of apoptosis in human HCT-116 cells assessed as late apoptotic cells level at 0.001 uM incubated for 24 hrs by Annexin V-FITC/PI staining based flow cytometry (reference value: 0.07%); type: functional
HCT-116 [3] = assay: Induction of apoptosis in human HCT-116 cells assessed as late apoptotic cells level at 0.03 uM incubated for 24 hrs by Annexin V-FITC/PI staining based flow cytometry (reference value: 0.07%); type: functional
HCT-116 [4] = assay: Induction of apoptosis in human HCT-116 cells assessed as early apoptotic cells level at 0.03 uM incubated for 24 hrs by Annexin V-FITC/PI staining based flow cytometry (reference value: 0.17%); type: functional
HCT-116 [5] = assay: Induction of apoptosis in human HCT-116 cells assessed as late apoptotic cells level at 1 uM incubated for 24 hrs by Annexin V-FITC/PI staining based flow cytometry (reference value: 0.07%); type: functional
[6] = Solubility of compound in water incubated for 24 hrs under shaking condition by HPLC analysis; type: physicochemical
HCT-116 [7] = assay: Antitumor activity against human HCT-116 cells xenografted in nude BALB/c mouse assessed as tumor growth inhibition at 8 mg/kg, po dosed once the other day for 12 times upto 24 days; type: functional; set-up: scale not given: the % may be the effect or the level left; conditions: time day <=24
[8] = Toxicity in nude BALB/c mouse xenografted with human HCT-116 cells assessed as reduction in body weight at 8 mg/kg, po dosed once the every 2 day for upto 24 days; type: organism-based; conditions: in vivo, time <=24 day
[9] = Toxicity in NPG mouse xenografted with human Raji cells assessed as body weight loss at 8 mg/kg, ig measured on the 1 day; type: organism-based; conditions: in vivo, po, 24 h
[10] = Toxicity in NPG mouse xenografted with human Raji cells assessed as body weight loss at 2 mg/kg, ip measured after 5 day; type: organism-based; conditions: in vivo, 120 h
HCT-116 [11] = assay: Antitumor activity against human HCT-116 cells xenografted in nude BALB/c mouse assessed as tumor growth inhibition at 0.5 mg/kg, ip dosed once the other day for 24 days; type: functional; conditions: HCT-116, ip, 576 h, time 24 day, read-out: TGI
Raji [12] = assay: Antitumor activity against NPG mouse xenografted with human Raji cell assessed as decrease in tumor volume at 4 mg/kg, ig measured on the 1 day; type: functional
Raji [13] = assay: Antitumor activity against NPG mouse xenografted with human Raji cell assessed as decrease in tumor volume at 8 mg/kg, ig measured on the 1 day; type: functional
Raji [14] = assay: Antitumor activity against NPG mouse xenografted with human Raji cell assessed as decrease in tumor volume at 4 mg/kg, ip measured after 5 day; type: functional
Raji [15] = assay: Antitumor activity against NPG mouse xenografted with human Raji cell assessed as decrease in tumor volume at 4 mg/kg, ig measured after 5 day; type: functional
Raji [16] = assay: Antitumor activity against NPG mouse xenografted with human Raji cell assessed as decrease in tumor volume at 8 mg/kg, ig measured after 5 day; type: functional
Raji [17] = assay: Antitumor activity against NPG mouse xenografted with human Raji cell assessed as tumor growth inhibition at 4 mg/kg, ip measured after 5 day; type: functional; conditions: 120 h, read-out: TGI
Raji [18] = assay: Antitumor activity against NPG mouse xenografted with human Raji cell assessed as tumor growth inhibition at 4 mg/kg, ig measured after 5 day; type: functional; conditions: po, 120 h, read-out: TGI
Raji [19] = assay: Antitumor activity against NPG mouse xenografted with human Raji cell assessed as tumor growth inhibition at 8 mg/kg, ig measured after 5 day; type: functional; conditions: po, 120 h, read-out: TGI
[20] = Toxicity in Kunming mouse assessed as mortality at 30 mg/kg, iv measured once every 30 mins upto 10 days; type: organism-based; conditions: in vivo, 0.5 h
[21] = Toxicity in Kunming mouse assessed as mortality at 200 mg/kg ip measured once every 30 mins upto 10 days; type: organism-based; conditions: in vivo, 0.5 h
[22] = Toxicity in Kunming mouse assessed as mortality at 250 mg/kg, po measured once every 30 mins upto 10 days; type: organism-based; conditions: in vivo, 0.5 h
[23] = Toxicity in Kunming mouse assessed as mortality at 300 mg/kg, po measured once every 30 mins upto 10 days; type: organism-based; conditions: in vivo, 0.5 h
[24] = Cmax in nude BALB/c mouse serum at 8.0 mg/kg incubated up to 9 hrs, iv administered […] by LC-MS/MS analysis; type: ADME, organism-based; set-up: route intravenous, dose 8 mg/kg, time <=9
[25] = Tmax in nude BALB/c mouse serum at 8.0 mg/kg incubated up to 9 hrs, iv administered […] by LC-MS/MS analysis; type: ADME, organism-based
[26] = AUC (0 to infinity) in nude BALB/c mouse serum at 8.0 mg/kg incubated up to 9 hrs, iv administered […] by LC-MS/MS analysis; type: ADME, organism-based; set-up: route intravenous, dose 8 mg/kg, time <=9; conditions: in vivo
[27] = Half life in nude BALB/c mouse serum at 8.0 mg/kg incubated up to 9 hrs, po administered via gavage by LC-MS/MS analysis; type: ADME, organism-based

Question: Which results are given for CCc1c2c(nc3ccc(OCC(=O)N4CCCCC4)cc13)-c1cc3c(c(=O)n1C2)COC(=O)[C@]3(O)CC?
Answer: IC50 (A549): 0.011 µM; IC50 (HCT-116 [1]): 0.003 µM; IC50 (LoVo): 0.081 µM; IC50 (COLO 205): 0.096 µM; Activity (HCT-116 [2]): 5.48%; Activity (HCT-116 [3]): 10.73%; Activity (HCT-116 [4]): 7.55%; Activity (HCT-116 [5]): 6.4%; solubility thermodynamic at 24 h [6]: 6.22 µg/mL (≈ 12 µM); Activity (HCT-116 [7]): 96.2%; Activity [8]: Toxic; Activity [9]: 24.6 g; Activity [10]: 20.6 g; inhibition in vivo at 0.5 mg/kg (HCT-116 [11]): 92%; Activity (Raji [12]): 900 mm3; Activity (Raji [13]): 956 mm3; Activity (Raji [14]): 729 mm3; Activity (Raji [15]): 1203 mm3; Activity (Raji [16]): 1374 mm3; inhibition in vivo at 4 mg/kg (Raji [17]): 136%; inhibition in vivo at 4 mg/kg (Raji [18]): 33.8%; inhibition in vivo at 8 mg/kg (Raji [19]): 81.3%; Activity [20]: Non-Toxic; Activity [21]: Toxic; Activity [22]: Non-Toxic; Activity [23]: Toxic; Cmax [24]: 1630 ng/mL; Tmax [25]: 10.2 min; AUC [26]: 748.96 h/ng/mL; half-life [27]: 87.6 min
